According to patent US20240207300A1, “COMBINATION THERAPIES INCLUDING MYT1 INHIBITORS” (Repare Therapeutics Inc., priority 2021, published 2024):

Target: recombinant human Myt1 (Homo sapiens (Human), UniProt Q99640)
Assay: Recombinant human Myt1 kinase ADP-Glo enzymatic assay
Assay type: biochemical
Details: recombinant human Myt1 18 nM, ATP 10 μM
Procedure: Detection of Myt1 kinase activity utilized a recombinant human Myt1 kinase assay measuring the hydrolysis of ATP using a commercially available ADP-Glo Assay (ADP-Glo™ Kinase Assay from Promega, 10 000 assays, #V9102). […] After this, 5 μL of compounds (diluted in reaction buffer to 0.5% DMSO) was added to the microplate and the plate was spun briefly and incubated at 22° C. for 15 minutes. Ultra-Pure Adenosine Triphosphate (ATP) solution (ADP-Glo kit from Promega) was diluted in reaction buffer and 5 μL was added to the microplate, spun down briefly and incubated for 60 minutes at 30° C. […] After the 60-minute incubation, 15 μL of ADP-Glo reagent was added and the plate was spun briefly and sealed and incubated in the dark for 40 minutes at 22° C. […] Luminescence was read using the Envision (250 ms integration). The IC50 and the % max inhibition were calculated for each inhibitor compound tested.

recombinant human Myt1, sequence (Q99640 whole entry): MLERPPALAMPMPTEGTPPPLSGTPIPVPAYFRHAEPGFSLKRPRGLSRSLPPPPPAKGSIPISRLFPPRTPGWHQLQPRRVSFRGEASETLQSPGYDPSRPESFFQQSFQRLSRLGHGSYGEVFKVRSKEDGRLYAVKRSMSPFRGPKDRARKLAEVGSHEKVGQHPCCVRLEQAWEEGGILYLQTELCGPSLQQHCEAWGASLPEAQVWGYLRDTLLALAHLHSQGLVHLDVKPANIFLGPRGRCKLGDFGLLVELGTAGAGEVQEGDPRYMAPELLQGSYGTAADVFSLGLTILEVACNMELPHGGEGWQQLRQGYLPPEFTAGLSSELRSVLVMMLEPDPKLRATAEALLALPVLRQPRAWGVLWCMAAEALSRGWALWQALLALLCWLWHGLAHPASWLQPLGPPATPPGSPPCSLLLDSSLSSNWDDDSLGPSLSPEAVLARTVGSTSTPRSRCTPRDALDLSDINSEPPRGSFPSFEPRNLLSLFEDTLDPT

| IC50 [nM] | Compound |
| --- | --- |
| < 10 | CC(=O)N1CCN(c2cnc3c(n2)c(C(N)=O)c(N)n3-c2c(C)ccc(O)c2C)CC1 [Compound 87] |
| < 10 | Cc1nc2c(C(N)=O)c(N)n(-c3c(Cl)ccc(O)c3C)c2nc1C [Compound 168] |
| < 10 | Cc1ccc(O)c(C)c1-n1c(N)c(C(N)=O)c2nc(-c3nc(C)c(C)s3)cnc21 [Compound 32] |
| < 10 | Cc1ccc(O)c(C)c1-n1c(N)c(C(N)=O)c2cc(C3=CCOCC3)cnc21 [Compound 304] |
| < 10 | Cc1ccc(O)c(C)c1-n1c(N)c(C(N)=O)c2ncc(C#CC3(O)CCC(F)(F)CC3)nc21 [Compound 242, 6-amino-3-[2-(4,4-difluoro-1-hydroxy-cyclohexyl)ethynyl]-5-(3-hydroxy-2,6-dimethyl-phenyl)pyrrolo[2,3-b]pyrazine-7-carboxamide] |
| < 10 | Cc1ccc(O)c(C)c1-n1c(N)c(C(N)=O)c2nc(-c3ccc(F)cn3)cnc21 [Compound 64] |
| < 10 | Cc1ccc(O)c(C)c1-n1c(N)c(C(N)=O)c2nc(-c3ccnnc3)cnc21 [Compound 250] |
| < 10 | Cc1ccc(O)c(C)c1-n1c(N)c(C(N)=O)c2cc(C#N)cnc21 [Compound 312] |
| < 10 | Cc1ccc(O)c(C)c1-n1c(N)c(C(N)=O)c2nc(-c3nccs3)c(C)nc21 [Compound 31, 6-amino-5-(3-hydroxy-2,6-dimethyl-phenyl)-3-methyl-2-thiazol-2-yl-pyrrolo[2,3-b]pyrazine-7-carboxamide] |
| < 10 | Cc1ccc(O)c(C)c1-n1c(N)c(C(N)=O)c2nc(-c3ccncn3)cnc21 [Compound 57] |
| 14 | Cc1ccc(O)c(C)c1-n1c(N)c(C(N)=O)c2ncc(C#CC3OCCC3O)nc21 (centres unmarked) [Compound 234] |
| < 10 | Cc1ccc(O)c(C)c1-n1c(N)c(C(N)=O)c2nc(N3CCCCC3)cnc21 [Compound 81] |
| < 10 | Cc1ccc(O)c(C)c1-n1c(N)c(C(N)=O)c2nc(-c3cncs3)cnc21 [Compound 37] |
| < 10 | Cc1ccc(O)c(C)c1-n1c(N)c(C(N)=O)c2ncc(C#CCC3CCOCC3)nc21 [Compound 222] |
| < 10 | Cc1ccc(O)c(C)c1-n1c(N)c(C(N)=O)c2nc(-c3ccns3)cnc21 [Compound 41] |
| < 10 | Cc1ccc(-c2cnc3c(n2)c(C(N)=O)c(N)n3-c2c(C)ccc(O)c2C)nc1 [Compound 61] |
| < 10 | Cc1c(O)ccc(Cl)c1-n1c(N)c(C(N)=O)c2nc(-c3nccs3)cnc21 [Compound 42] |
| 24 | Cc1ccc(O)c(C)c1-n1c(N)c(C(N)=O)c2ncc(C#CC(C)O)nc21 (centres unmarked) [Compound 241] |
| < 10 | Cc1ccc(O)c(C)c1-n1c(N)c(C(N)=O)c2nc(N3CCCC3)cnc21 [Compound 85] |
| 191 | COCCOCC#Cc1cnc2c(n1)c(-c1c(C)ccc(O)c1C)c(N)n2C(N)=O [Compound 240] |
| < 10 | Cc1ccc(O)c(C)c1-n1c(N)c(C(N)=O)c2nc(-c3cn(C)cn3)cnc21 [Compound 76] |
| < 10 | Cc1ccc(O)c(C)c1-n1c(N)c(C(N)=O)c2nc3c(nc21)CCCC3 [Compound 262] |
| < 10 | C=C(C)c1cnc2c(n1)c(C(N)=O)c(N)n2-c1c(C)ccc(O)c1C [Compound 202] |

| IC50 [nM] | Compound |
| --- | --- |
| < 10 | Cc1ccc(O)c(C)c1-n1c(N)c(C(N)=O)c2nc(C3=CCCCC3)cnc21 [Compound 86] |
| < 10 | Cc1ccc(O)c(C)c1-n1c(N)c(C(N)=O)c2nc(N3CC4CCC(C3)O4)cnc21 [Compound 92] |
| < 10 | Cc1ccc(O)c(C)c1-n1c(N)c(C(N)=O)c2nc(-c3cnccn3)cnc21 [Compound 38] |
| < 10 | Cc1ccc(O)c(Cl)c1-n1c(N)c(C(N)=O)c2cc(Cl)cnc21 [Compound 327] |
| 52 | Cc1ccc(O)c(C)c1-n1c(N)c(C(N)=O)c2ncc(C#CC(C)O)nc21 (centres unmarked) [Compound 229] |
| < 10 | Cc1ccc(O)c(C)c1-n1c(N)c(C(N)=O)c2nc(N3CCC(C(=O)N(C)C)CC3)cnc21 [Compound 80] |
| < 10 | Cc1ccc(O)c(C)c1-n1c(N)c(C(N)=O)c2cc(C(C)(C)O)cnc21 [Compound 131] |
| > 5000 | Cc1ccc(O)c(C)c1-n1c(N)c(S(C)(=O)=O)c2nc(-c3cnccn3)cnc21 [Compound 278] |
| < 10 | C=Cc1cnc2c(n1)c(C(N)=O)c(N)n2-c1c(C)ccc(O)c1C [Compound 259] |
| < 10 | Cc1ccc(O)c(C)c1-n1c(N)c(C(N)=O)c2cc(N3CCCC3=O)cnc21 [Compound 298] |
| < 10 | Cc1ccc(O)c(C)c1-n1c(N)c(C(N)=O)c2cc(-c3ccccn3)cnc21 [Compound 295] |
| < 10 | Cc1ccc(O)c(C)c1-n1c(N)c(C(N)=O)c2nc(C(N)=O)cnc21 [Compound 220, 6-amino-5-(3-hydroxy-2,6-dimethyl-phenyl)pyrrolo[2,3-b]pyrazine-2,7-dicarboxamide] |
| < 10 | Cc1ccc(O)c(C)c1-n1c(N)c(C(N)=O)c2cc(S(=O)(=O)C3CC3)cnc21 [Compound 311] |
| < 10 | Cc1ccc(O)c(C)c1-n1c(N)c(C(N)=O)c2nc(-c3ccccn3)cnc21 [Compound 34] |
| < 10 | Cc1ccc(O)c(C)c1-n1c(N)c(C(N)=O)c2ncc(C#CC3(O)CCOCC3)nc21 [Compound 231] |
| < 10 | Cc1ccc(O)c(C)c1-n1c(N)c(C(N)=O)c2nc(C3=CCC(C(=O)N(C)C)CC3)cnc21 (centres unmarked) [Compound 58] |
| < 10 | Cc1ccc(O)c(C)c1-n1c(N)c(C(N)=O)c2nc(-c3c[nH]cn3)cnc21 [Compound 65] |
| 2000 | Cc1ccc(O)cc1-n1c(N)c(C(N)=O)c2nc(C3=CCCN(C(=O)OC(C)(C)C)C3)ccc21 [Compound 26] |
| < 10 | Cc1ccc(O)c(C)c1-n1c(N)c(C(N)=O)c2nc(-c3ccnc(C(F)(F)F)c3)cnc21 [Compound 35, 6-amino-5-(3-hydroxy-2,6-dimethyl-phenyl)-2-[2-(trifluoromethyl)-4-pyridyl]pyrrolo[2,3-b]pyrazine-7-carboxamide] |
| < 10 | Cc1ccc(O)c(C)c1-n1c(N)c(C(N)=O)c2cccnc21 [Compound 328] |
| < 10 | Cc1ccc(O)c(C)c1-n1c(N)c(C(N)=O)c2cc(-c3nccs3)cnc21 [Compound 308] |
| < 10 | Cc1ccc(O)c(C)c1-n1c(N)c(C(N)=O)c2nc(-c3nc4ccccc4s3)cnc21 [Compound 248] |
| < 10 | CNC(=O)C1CCN(c2cnc3c(n2)c(C(N)=O)c(N)n3-c2c(C)ccc(O)c2C)CC1 [Compound 46, 6-amino-5-(3-hydroxy-2,6-dimethyl-phenyl)-2-[4-(methylcarbamoyl)-1-piperidyl]pyrrolo[2,3-b]pyrazine-7-carboxamide] |

| Compound | IC50 [nM] |
| --- | --- |
| Cc1ccc(O)c(C)c1-n1c(N)c(C(N)=O)c2nc(C3CCC3)cnc21 [Compound 173, 6-amino-2-cyclobutyl-5-(3-hydroxy-2,6-dimethyl-phenyl)pyrrolo[2,3-b]pyrazine-7-carboxamide] | < 10 |
| Cc1ccc(O)c(C)c1-n1c(N)c(C(N)=O)c2cc(Br)c(C)nc21 [Compound 187] | < 10 |
| Cc1ccc(O)c(Cl)c1-n1c(N)c(C(N)=O)c2nc(C3CC3)cnc21 [Compound 104] | < 10 |
| Cc1ccc(O)c(C)c1-n1c(N)c(C(N)=O)c2nc(C3CC3)c(C)nc21 [Compound 100] | < 10 |
| Cc1ccc(O)c(C)c1-n1c(N)c(C(N)=O)c2cc(Br)c(C)nc21 (single isomer, unassigned) [Compound 189] | 1010 |
| Cc1ccc(O)c(C)c1-n1c(N)c(C(N)=O)c2nc(C(C)(C)F)cnc21 [Compound 178, 6-amino-2-(1-fluoro-1-methyl-ethyl)-5-(3-hydroxy-2,6-dimethyl-phenyl)pyrrolo[2,3-b]pyrazine-7-carboxamide] | < 10 |
| Cc1ccc(O)c(C)c1-n1c(N)c(C(N)=O)c2cc(Br)c(C)nc21 (single isomer, unassigned) [Compound 188] | < 10 |
| Cc1ccc(O)c(C)c1-n1c(N)c(C(N)=O)c2c(Cl)c(Cl)cnc21 [Compound 316] | < 10 |
| Cc1ccc(O)c(C)c1-n1c(N)c(C(N)=O)c2cc(I)cnc21 [Compound 319] | < 10 |
| CCN(CC)c1cnc2c(n1)c(C(N)=O)c(N)n2-c1c(C)ccc(O)c1C [Compound 88] | < 10 |
| Cc1ccc(O)c(C)c1-n1c(N)c(C(N)=O)c2cc(C(C)C)cnc21 [Compound 138] | < 10 |
| Cc1ccc(O)c(C)c1-n1c(N)c(C(N)=O)c2ncc(C#CC3OCCC3Cl)nc21 (centres unmarked) [Compound 233] | 10 |
| Cc1ccc(O)c(C)c1-n1cc(C(N)=O)c2cc(C3CC3)cnc21 [Compound 143] | < 10 |
| Cc1ccc(O)c(C)c1-n1c(N)c(C(N)=O)c2c(C)c(Cl)cnc21 [Compound 313] | < 10 |
| Cc1ccc(O)c(C)c1-n1c(N)c(C(N)=O)c2nc(C3(C(F)(F)F)CC3)cnc21 [Compound 198, 6-amino-5-(3-hydroxy-2,6-dimethyl-phenyl)-2-[1-(trifluoromethyl)cyclopropyl]pyrrolo[2,3-b]pyrazine-7-carboxamide] | < 10 |
| Cc1ccc(O)c(C)c1-n1c(N)c(C(N)=O)c2cc(Br)cnc21 [Compound 141] | < 10 |
| Cc1ccc(O)c(Br)c1-n1c(N)c(C(N)=O)c2cc(Cl)cnc21 [Compound 289] | < 10 |
| Cc1ccc(O)c(C)c1-n1c(N)c(C(N)=O)c2nc(C3CCCCC3)cnc21 [Compound 83] | < 10 |
| Cc1ccc2c(C(N)=O)c(N)n(-c3c(C)ccc(O)c3C)c2n1 [Compound 193] | < 10 |
